Reference: publication PMC8703884, “Synthesis and Biological Evaluation of S-, O- and Se-Containing Dispirooxindoles” (Molecules, 2021)
Entries after “also recorded” stand apart in the source; their conditions may differ. Read-outs that look alike come from different tables or passages of the source.

What was measured:
[1] = test system: A549 human lung adenocarcinoma epithelial cell line; assay: MTT cytotoxicity test, A549; type: cell-based; conditions: 72 h incubation
[2] = test system: MCF7 breast cancer cell line; assay: MTT cytotoxicity test, MCF7; type: cell-based; conditions: Homo sapiens, 72 h incubation
Procedure: (§1) MTT test. […] Assays were performed in triplicates.

[3] = MTT cytotoxicity test, VA13; type: cell-based; conditions: human, VA13 SV40-transformed normal lung fibroblast cells, 72 h incubation
Procedure: as §1

[4] = MTT cytotoxicity test, Hek293T; type: cell-based; conditions: human, 72 h incubation
[5] = test system: HCT116^+/+ human colon cancer cells (p53 positive); assay: MTT cytotoxicity test, HCT116 p53+/+; conditions: for CC50: Homo sapiens, HCT-116, read-out: CC50, HCT^+/+
Text: (§2) The used models included human prostate cancer cell lines LNCaP and PC3, breast cancer cell line (MCF-7), human colon cancer cells (HCT116^+/+, p53 positive, p53^+/+ and HCT116^−/−, p53 negative, p53^−/−), human lung adenocarcinoma epithelial cell line (A549), SV40-transformed normal human lung fibroblast cells (VA13), as well as human embryonic kidney 293 cells (Hek293) stably expressing SV40 large T antigen (Hek293T). The cytotoxicity of the evaluated molecules was properly assessed using a MTT assay based on the modified approach reported by Ferrari and colleagues.
(§3) To further elucidate the dominant mode of action, we used HCT116^+/+ and HCT116^−/− cells by analogy with the paper published by Shangary and colleagues. This isogenic cell line is commonly applied to investigate the p53/MDM2-dependent mode of action.
(§4) MTT test. The MTT assay was carried out according to [35] with few modifications; 3000 Cells (for HEK293T, A549 and MCF7cell lines) or 4000 cells (for VA13 cell line) were seeded in each well of a 96-well plate. […] Assays were performed in triplicates. […] The MTT solution was then discarded and 140 µL of DMSO was added. The plates were swayed on a shaker (60 rpm) to solubilize the formazan. […] The analysis of cytotoxicity and the estimation of IC50 values were carried out with the built-in functions in the GraphPad Prism program (GraphPad Software, Inc., San Diego, CA) P53 activation.

[6] = test system: HCT116^−/− human colon cancer cells (p53 negative); assay: MTT cytotoxicity test, HCT116 p53-/-; conditions: HCT-116, read-out: CC50, HCT^−/−
Text: as §2, §3, §4

[7] = test system: LNCaP human prostate cancer cell line; assay: MTT cytotoxicity test, LNCaP; type: cell-based; conditions: for CC50: Homo sapiens, LNCaP, read-out: CC50, LNCaP
[8] = test system: PC3 human prostate cancer cell line; assay: MTT cytotoxicity test, PC3; type: cell-based; conditions: Homo sapiens
[9] = ratio of CC50 values of the cell line pair

Row | melting point | Compound | CC50 [1] [µM] | CC50 [2] [µM] | CC50 at 72 h [3] [µM] | CC50 at 72 h [4] [µM] | CC50 [5] [µM] | CC50 [6] [µM] | CC50 ([7]; MTT test) [µM] | selectivity on LNCaP cells over PC3 cells ([7]; MTT test) | selectivity index S for LNCaP/PC3 cells [7, 9] | CC50 [8] [µM] | CC50 [7] [µM] | CC50, LNCaP ([7]; MTT test) | selectivity S against HCT116^+/+ over HCT116^−/− [5, 9]
1 | 284 to 285 °C (dec.) | COc1ccc(N2C(=O)C3(CN(C)CC34C(=O)Nc3ccc(Cl)cc34)NC2=[Se])cc1 (stereo not shown) [Compound 6f, 5″-Chloro-1-(4-methoxyphenyl)-1′-methyl-2-selenoxodispiro[imidazolidine-4,3′-pyrrolidine-4′,3″-indoline]-2″,5-dione] | 15.8 ± 1.5 | 20.4 ± 3.6 | 12.5 ± 1.5 | 14 ± 1.5 | – | – | – | – | – | – | – | – | –
2 | 273 to 274 °C | CCOc1ccc(N2C(=O)NC3(CN(C)CC34C(=O)Nc3ccc(Cl)cc34)C2=O)cc1 (stereo not shown) [Compound 9h, 5″-Chloro-1-(4-ethoxyphenyl)-1′-methyldispiro[imidazolidine-4,3′-pyrrolidine-4′,3″-indoline]-2,2″,5-trione] | – | – | – | – | – | – | – | – | – | – | – | – | –

Continued, compound first:

Row | Compound | melting point | CC50 [1] [µM] | CC50 [2] [µM] | CC50 at 72 h [3] [µM] | CC50 at 72 h [4] [µM] | CC50 [5] [µM] | CC50 [6] [µM] | CC50 ([7]; MTT test) [µM] | selectivity on LNCaP cells over PC3 cells ([7]; MTT test) | selectivity index S for LNCaP/PC3 cells [7, 9] | CC50 [8] [µM] | CC50 [7] [µM] | CC50, LNCaP ([7]; MTT test) | selectivity S against HCT116^+/+ over HCT116^−/− [5, 9]
3 | COc1ccc(N2C(=O)[C@@]3(CN(C)C[C@@]34C(=O)Nc3ccc(Cl)cc34)NC2=S)cc1 (racemic) [Compound 4f, 5″-Cchloro-1′-methyl-1-(4-methoxyphenyl)-2-thioxodispiro[imidazolidine-4,3′-pyrrolidine-4′,3″-indoline]-2″,5-dione] | – | 2.8 ± 0.4 | 2.3 ± 0.5 | 2.3 ± 0.4 | 1.1 ± 0.1 | 1.95 ± 0.43 | 2.35 ± 0.95 | 4.5 ± 0.32 | selective; also recorded: moderate selectivity | 2.8 | 12.6 ± 2.3 | – | – | –
4 | CN1CC2(NC(=S)N(CCCN3CCOCC3)C2=O)C2(C1)C(=O)Nc1ccc(Cl)cc12 (stereo not shown) [Compound 4v, 5″-Chloro-1′-methyl-1-(3-morpholinopropyl)-2-thioxodispiro[imidazolidine-4,3′-pyrrolidine-4′,3″-indoline]-2″,5-dione] | 224 to 225 °C | > 100 | – | – | 103 ± 27.7 | > 100 | > 100 | > 100 | – | – | > 100 | – | – | –
5 | CN1CC2(NC(=S)N(c3ccc(F)cc3)C2=O)C2(C1)C(=O)Nc1ccc(Cl)cc12 (stereo not shown) [Compound 4n, 5″-Chloro-1′-methyl-1-(4-fluorophenyl)-2-thioxodispiro[imidazolidine-4,3′-pyrrolidine-4′,3″-indoline]-2″,5-dione] | 273 to 274 °C | > 100 | – | – | 53 ± 9.5 | > 100 | > 100 | > 100 | – | – | > 100 | – | – | –
6 | CN1CC2(NC(=[Se])N(c3ccc(F)c(Cl)c3)C2=O)C2(C1)C(=O)Nc1ccc(Cl)cc12 (stereo not shown) [Compound 6r, 5″-Chloro-1-(3-chloro-4-fluorophenyl)-1′-methyl-2-selenoxodispiro[imidazolidine-4,3′-pyrrolidine-4′,3″-indoline]-2″,5-dione] | 193 to 194 °C (dec.) | 26.5 ± 5.4 | – | – | 11.9 ± 0.9 | – | – | – | – | – | > 50 | 11.8 ± 1.5 | good activity | –
7 | COc1cc([C@@H]2c3cc4c(cc3[C@@H](O[C@@H]3O[C@@H]5CO[C@@H](C)O[C@H]5[C@H](O)[C@H]3O)[C@H]3COC(=O)[C@H]23)OCO4)cc(OC)c1O [Etoposide, reference compound] | – | 0.3 ± 0.1 | 2.6 ± 0.9 | – | 0.3 ± 0.1 | 0.43 ± 0.12 | 0.85 ± 0.22 | – | – | – | – | – | – | 1.97
8 | CN1CC2(NC(=S)N(c3ccccc3)C2=O)C2(C1)C(=O)Nc1ccc(Cl)cc12 (stereo not shown) [Compound 4x, 5″-Chloro-1′-methyl-1-phenyl-2-thioxodispiro[imidazolidine-4,3′-pyrrolidine-4′,3″-indoline]-2″,5-dione] | 268 to 269 °C | > 100 | – | – | > 100 | > 100 | > 100 | > 100 | – | – | > 100 | – | – | –
